Here are results for 67 compounds from paper PMC12668310, “High‐Throughput Synthesis and Screening of a Cyanimide Library Identifies Selective Inhibitors of ISG15‐Specific Protease mUSP18” (Angewandte Chemie (International Ed. in English), 2025).

Like-named read-outs stand apart in the source and are kept apart here.

This assay has as its target T1, mUSP18 (Mus musculus, UniProt Q9WTV6).
T1 construct: (46-368); His-tag (N); made in house
T1 sequence (Q9WTV6 46-368): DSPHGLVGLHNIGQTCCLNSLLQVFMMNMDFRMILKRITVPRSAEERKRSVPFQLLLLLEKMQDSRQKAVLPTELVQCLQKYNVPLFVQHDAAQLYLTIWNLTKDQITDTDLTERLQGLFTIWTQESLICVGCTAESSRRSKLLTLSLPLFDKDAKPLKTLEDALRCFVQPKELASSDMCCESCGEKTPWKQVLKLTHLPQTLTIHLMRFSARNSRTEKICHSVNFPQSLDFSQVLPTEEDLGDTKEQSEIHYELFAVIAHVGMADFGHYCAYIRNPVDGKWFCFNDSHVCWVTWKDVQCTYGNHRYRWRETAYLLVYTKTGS
Description: High-throughput screening, ISG15ct-RhoMP, single dose 1.25 µM. In kind it is biochemical, murine.

The mark [1] stands for this setting: mUSP18 %inhibition, carboxylic acid (CA) building block alone, read-out: %inh CA only.
[2] abbreviates: mUSP18 %inhibition, carboxylic acid (CA) with coupling reagents DIC/HOBT, read-out: %inh CA + DIC/HOBT.

As to `CC(C)(C)OC(=O)NC1(C(=O)O)CC1` [CA060], the inhibition at 1.25 µM is, setting by setting: under setting [1], -6.62%; under setting [2], -13.2%.
In the case of `O=C(NCc1ccc(C(=O)O)cc1)OCC1c2ccccc2-c2ccccc21` [CA061], the inhibition at 1.25 µM under setting [1] came to 13.4% and the inhibition at 1.25 µM under setting [2] is -3.66%.
In the case of `CN(C)c1ccc(C(=O)O)cc1` [CA062], the inhibition at 1.25 µM runs as follows: under setting [1], -0.0145%; under setting [2], 33.7%.
On the same counts, the results for `CC(C)(C)OC(=O)N1C[C@@H](O)C[C@@H]1C(=O)O` [CA063] are -5.22% and -16.4%.
For `O=C(O)c1ccc(N2CCCC2)cc1F` [CA064], in that order: -1.15% and -11.3%.
Regarding `CC(C)(C)OC(=O)N1CC[C@H](C(=O)O)C1` [CA067], the inhibition at 1.25 µM runs as follows: under setting [1], -11.3%; under setting [2], -14.4%.
As to `O=C(O)c1ccc2cc3ccccc3cc2c1` [CA068], the inhibition at 1.25 µM stood at 6.72% under setting [1] and 2.22% under setting [2].
For `O=C(O)c1cccc2cc3ccccc3cc12` [CA069], in that order: -0.58% and -8.94%.
As for `N#CCC(=O)O` [CA070], the inhibition at 1.25 µM runs as follows: under setting [1], -5.36%; under setting [2], -14.2%.
For the compound `CC(=O)Oc1ccccc1C(=O)O` [CA071], the inhibition at 1.25 µM was -4.57% under setting [1] and -15.7% under setting [2].
On to `O=C(O)CCc1ccccc1` [CA072], for which the inhibition at 1.25 µM under setting [1] was -7.29% and the inhibition at 1.25 µM under setting [2] is -13.3%.
Turning to `O=C(O)C(Cl)(Cl)Cl` [CA073], the inhibition at 1.25 µM reads like this: under setting [1], 4.86%; under setting [2], -12.6%.
For `O=C(O)CN1CCOCC1` [CA074], in that order: -1.88% and -17.1%.
As for `O=C1CC(C(=O)O)NC(=O)N1` (stereo not drawn) [CA075], the inhibition at 1.25 µM is -4.58% under setting [1] and -15.1% under setting [2].
Take `CN1CCN(CC(=O)O)CC1` [CA076]: the inhibition at 1.25 µM was -7.27% under setting [1] and -15.7% under setting [2].
On the same counts, the results for `O=C(O)C1CC1` [CA077] are -6.84% and -14.4%.
In the case of `O=C(O)CC1C(=O)Nc2ccccc21` (stereo not drawn) [CA078], the inhibition at 1.25 µM by setting is: under setting [1], -7.04%; under setting [2], -14.2%.
Regarding `CC(=O)C(=O)O` [CA079], the inhibition at 1.25 µM was -7.45% under setting [1] and -14.4% under setting [2].
Consider `COCC(=O)O` [CA080], for which the inhibition at 1.25 µM is -8.74% under setting [1] and -15.7% under setting [2].
As to `O=C(O)c1cnccn1` [CA081], for the setting “mUSP18 %inhibition, carboxylic acid (CA) building block alone”, the “%inh CA only” value is listed as -6.50%. The “%inh CA + DIC/HOBT” value (mUSP18 %inhibition, carboxylic acid (CA) with coupling reagents DIC/HOBT) is recorded as -13.28%.
In the case of `Cc1ncc(C(=O)O)s1` [CA082], the inhibition at 1.25 µM under setting [1] is -10.3% and the inhibition at 1.25 µM under setting [2] is -14.8%.
Regarding `O=C(O)c1ccc2c(c1)OCO2` [CA083], the inhibition at 1.25 µM under setting [1] is -4.98% and the inhibition at 1.25 µM under setting [2] is -14.2%.
With `O=C(O)c1ccc2c(c1)ncn2C1CCCCO1` (stereo not drawn) [CA084], the inhibition at 1.25 µM under setting [1] was -10.2% and the inhibition at 1.25 µM under setting [2] is -14.9%.
On to `CN1CCN(c2ccc(C(=O)O)cc2)CC1` [CA085], for which the inhibition at 1.25 µM runs as follows: under setting [1], 5.37%; under setting [2], -9.79%.
On the same counts, the results for `O=C(O)c1ccc(N2CCOCC2)cc1` [CA086] are 2% and 15.8%.
For `CN1CCC(C(=O)O)CC1` [CA087], in that order: -3.93% and -14.3%.
On to `CC(=O)N1CCC(C(=O)O)CC1` [CA088], for which the inhibition at 1.25 µM by setting is: under setting [1], -2.57%; under setting [2], -12.6%.
On the same counts, the results for `O=C(O)C1CCN(c2ncccn2)CC1` [CA089] are -4.93% and -12.3%.
For the compound `O=C(O)c1nc(N2CCCC2)ncc1Cl` [CA090], the inhibition at 1.25 µM was determined as 23.1% under setting [1] and 14.2% under setting [2].
For `O=C(O)C(Cc1c[nH]cn1)NS(=O)(=O)c1ccc(Cl)cc1` (stereo not drawn) [CA091], the inhibition at 1.25 µM by setting is: under setting [1], 20.4%; under setting [2], 8.3%.
With `O=C(O)Cc1csc(-c2cnccn2)n1` [CA092], the inhibition at 1.25 µM by setting is: under setting [1], 15.3%; under setting [2], 13.1%.
Turning to `O=C(O)CCN(Cc1ccccc1)S(=O)(=O)c1c(Cl)cccc1Cl` [CA093], the inhibition at 1.25 µM was 18.6% under setting [1] and 13.9% under setting [2].
As for `O=C(O)c1ncoc1-c1cccs1` [CA094], the inhibition at 1.25 µM runs as follows: under setting [1], 14.4%; under setting [2], 10.3%.
As for `O=C(O)c1cccc(S(=O)(=O)NCc2cccs2)c1` [CA095], the inhibition at 1.25 µM runs as follows: under setting [1], 14.6%; under setting [2], 10.3%.
On to `Cc1ccc(-n2c(C)ccc2C)c(C(=O)O)c1` [CA96], for which the inhibition at 1.25 µM under setting [1] came to 74.4% and the inhibition at 1.25 µM under setting [2] was found to be 60%. Besides, the “inhibition of mUSP18 by individual CA's and coupling reagents” value (screened with and without DIC/HOBt) is recorded as “could inhibit mUSP18”.
Consider `O=C(O)Cc1csc(COc2ccc(Cl)cc2)n1` [CA097], for which the inhibition at 1.25 µM reads like this: under setting [1], 15.8%; under setting [2], 12.5%.
Turning to `O=C(O)Cc1cc(-c2ccccc2)on1` [CA098], the inhibition at 1.25 µM is, setting by setting: under setting [1], 21.6%; under setting [2], 14.7%.
For `O=C(O)Cc1ccc(S(=O)(=O)N2CCCC2)s1` [CA099], the inhibition at 1.25 µM by setting is: under setting [1], 21.7%; under setting [2], 15.6%.
For `CN(C(=O)c1cccs1)c1ccccc1C(=O)O` [CA100], in that order: 16.4% and 10.5%.
On the same counts, the results for `CN1CCN(c2ccccc2C(=O)O)CC1` [CA101] are 13.5% and 12.2%.
Take `Cn1cc(-c2ocnc2C(=O)O)cn1` [CA102]: the inhibition at 1.25 µM by setting is: under setting [1], 12.6%; under setting [2], 14.3%.
As for `NS(=O)(=O)c1ccc(-c2cccc(C(F)(F)F)c2)c(C(=O)O)c1` [CA103], the inhibition at 1.25 µM runs as follows: under setting [1], 11.4%; under setting [2], 12.3%.
On the same counts, the results for `O=C(O)c1cnoc1-c1cccs1` [CA104] are 12.4% and 34%.
In the case of `O=C(O)c1ccc(OCc2ccncc2)cc1` [CA105], the inhibition at 1.25 µM is, setting by setting: under setting [1], 12.9%; under setting [2], 11.9%.
For `O=C(O)c1cc(-n2ccnc2)ccn1` [CA106], in that order: 13.6% and 10.8%.
On to `O=C(O)C1CCN(Cc2ccc(Cl)s2)CC1` [CA107], for which the inhibition at 1.25 µM is 13% under setting [1] and 10.7% under setting [2].
For `O=C(O)C1CC(=O)N(c2cnccn2)C1` (stereo not drawn) [CA108], in that order: 13.8% and 11.5%.
Take `CCC(C(=O)O)n1nnc(-c2ccsc2)n1` (stereo not drawn) [CA109]: the inhibition at 1.25 µM was 10.4% under setting [1] and 12.2% under setting [2].
Regarding `Cc1cnn(-c2c(C(=O)O)c(C)nn2C)c1` [CA110], the inhibition at 1.25 µM by setting is: under setting [1], 12.9%; under setting [2], 15%.
Consider `O=C(O)c1csc(-c2ncccn2)n1` [CA111], for which the inhibition at 1.25 µM was found to be 12.3% under setting [1] and 14.7% under setting [2].
On to `O=C(O)c1ncoc1C1CC1` [CA112], for which the inhibition at 1.25 µM reads like this: under setting [1], 13.7%; under setting [2], 16.4%.
On the same counts, the results for `O=C(O)CC(O)(c1nccn1Cc1ccccc1)C(F)(F)F` (stereo not drawn) [CA113] are 9.19% and 16.2%.
Consider `O=C(O)c1cn(C2CCC2)nn1` [CA114], for which the inhibition at 1.25 µM by setting is: under setting [1], 23.9%; under setting [2], 9%.
Regarding `Cc1ccc(NS(=O)(=O)c2cccc(C(=O)O)c2)cc1` [CA115], the inhibition at 1.25 µM by setting is: under setting [1], 21.2%; under setting [2], 6.11%.
For `O=C(O)[1C@@H]1C[1C@H]1c1ccco1` [CA116], in that order: 14.9% and 4.8%.
As for `Cn1ncc(C(=O)O)c1-n1cccc1` [CA117], the inhibition at 1.25 µM was found to be 18.6% under setting [1] and 10% under setting [2].
On to `O=C(O)C1(n2cnnn2)CC1` [CA118], for which the inhibition at 1.25 µM reads like this: under setting [1], 12.1%; under setting [2], 4.09%.
As for `O=C(O)C1CC(OCc2ccccc2)C1` (stereo not drawn) [CA119], the inhibition at 1.25 µM turned out to be 13.6% under setting [1] and 8.14% under setting [2].
For `O=C(O)C1(n2cnnn2)CCOCC1` [CA120], in that order: 11.7% and 5.68%.
For `O=C(O)c1noc(Cc2ccccc2F)n1` [CA121], the inhibition at 1.25 µM came out at 10.7% under setting [1] and 7.15% under setting [2].
On to `CCn1cc(S(=O)(=O)N2CCC(C(=O)O)CC2)cn1` [CA122], for which the inhibition at 1.25 µM is, setting by setting: under setting [1], 11.4%; under setting [2], 5.98%.
As to `O=C(O)[1C@@H]1CCO[1C@H]1c1ccccc1` [CA123], the inhibition at 1.25 µM under setting [1] was determined as 12.2% and the inhibition at 1.25 µM under setting [2] stood at 8.31%.
In the case of `O=C(O)c1cnnn1-c1ccccc1Cl` [CA124], the inhibition at 1.25 µM under setting [1] is 10.7% and the inhibition at 1.25 µM under setting [2] turned out to be 3.42%.
On to `O=C(O)c1cnn(-c2ccncc2)c1` [CA125], for which the inhibition at 1.25 µM is 7.48% under setting [1] and 7.42% under setting [2].
Consider `O=C(O)c1snnc1-c1ccc(Br)cc1` [CA126], for which the inhibition at 1.25 µM worked out at 9.01% under setting [1] and 10.8% under setting [2].
On to `Cc1nc(CN2CCCC2C(=O)O)no1` (stereo not drawn) [CA127], for which the inhibition at 1.25 µM reads like this: under setting [1], 2.84%; under setting [2], 5.46%.
With `Cc1oc(-c2ccco2)nc1CC(=O)O` [CA128], the inhibition at 1.25 µM is, setting by setting: under setting [1], 4.02%; under setting [2], 9.87%.
